These compounds were tested on genotype A, "Long" strain RSV (assay: RSV-A assay (CPE, ATPlite readout in Hep-2 cells)). Details: human respiratory syncytial virus, HEp-2, Hep-2 cells, genotype A "Long" strain RSV, MOI 0.1; read-out: Human RSV-A (“Long” strain) EC50.
Format: cell-based
Outline: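 Hep-2 cells (8,000/well) received 2-fold serial compound dilutions in duplicate and RSV Long strain at MOI 0.1. After 5 days' incubation, cell health was read as ATP by ATPlite luminescence, with virus-only and uninfected controls defining max and minimum CPE; EC50 reported.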

Row | EC50 | SMILES
1 | > 0.2 µM | C[C@]1(C(=O)NCCCc2ccccc2)COc2c1cc([C@@](O)(CNC(=O)c1cc(OC3CC3)c3ncccc3c1)C(F)(F)F)nc2-c1ccc(F)cc1 [Example 487]
2 | < 0.2 µM | Cc1ccc(-c2nc([C@@](O)(CNC(=O)c3cc(OC4CC4)c4ncccc4c3)C(F)(F)F)cc3c2OC[C@]3(C)C(N)=O)cc1 [Example 283]
3 | > 0.2 µM | COc1cc(C(=O)NC[C@](O)(c2cc3c(c(-c4ccc(F)cc4)n2)OC[C@]3(C)COC(=O)Nc2ccccc2)C(F)(F)F)ccc1OCCO [Example 6]
4 | > 0.2 µM | COc1cc(C(=O)NC[C@](O)(c2cc3c(c(-c4ccc(F)cc4)n2)OC[C@]3(C)C(=O)NC2(C)CC(F)(F)C2)C(F)(F)F)cc2cccnc12 [Example 58]
5 | < 0.2 µM | CCc1cnc2c(OCC(N)=O)cc(C(=O)NC[C@](O)(c3cc4c(c(-c5ccc(F)cc5)n3)OC[C@]4(C)C(N)=O)C(F)(F)F)cc2c1 [Example 368]
6 | < 0.2 µM | COc1cc(C(=O)NCC(O)(c2cc3c(c(-c4ccc(F)cc4)n2)OC[C@]3(C)CN[C@@H](C)C2CC2)C(F)(F)F)ccc1OCCO (some centres unmarked) [Example 4]
7 | < 0.2 µM | Cc1cc(-c2cc(C(=O)NC[C@](O)(c3cc4c(c(-c5ccc(F)cc5)n3)OC[C@]4(C)C(N)=O)C(F)(F)F)ccc2OC2CC2)ccn1 [Example 120]
8 | < 0.2 µM | C[C@]1(C(N)=O)COc2c1cc([C@@](O)(CNC(=O)c1cc(Nc3ccnnc3)c3ncccc3c1)C(F)(F)F)nc2-c1ccc(F)cc1 [Example 348]
9 | < 0.2 µM | C[C@]1(C(N)=O)COc2c1cc([C@@](O)(CNC(=O)c1ccc(F)c(OC3CC3)c1)C(F)(F)F)nc2-c1ccc(F)cc1 [Example 294]
10 | < 0.2 µM | C[C@]1(C(=O)NCc2ccc[nH]2)COc2c1cc([C@@](O)(CNC(=O)c1cc(OC3CC3)c3ncccc3c1)C(F)(F)F)nc2-c1ccc(F)cc1 [Example 480]
11 | > 0.2 µM | C[C@]1(C(N)=O)COc2c1cc([C@@](O)(CNC(=O)c1ccc(-c3ccc(C(F)(F)F)cn3)c(OC3CC3)c1)C(F)(F)F)nc2-c1ccc(F)cc1 [Example 156]
12 | > 0.2 µM | C[C@]1(C(N)=O)COc2c1cc([C@@](O)(CNC(=O)c1ccc3c(c1)OC(F)(F)O3)C(F)(F)F)nc2-c1ccc(F)cc1 [Example 66]
13 | < 0.2 µM | COc1cc(C(=O)NC[C@](O)(c2cc3c(c(-c4ccc(C)cc4)n2)OC[C@]3(C)C(N)=O)C(F)(F)F)cc2cc(C)cnc12 [Example 259]
14 | > 0.2 µM | C[C@]1(C(N)=O)COc2c1cc([C@@](O)(CNC(=O)c1cc3cc(Cl)ccc3[nH]1)C(F)(F)F)nc2-c1ccc(F)cc1 [Example 589]
15 | < 0.2 µM | C[C@]1(C(N)=O)COc2c1cc([C@@](O)(CNC(=O)c1cc(OC(F)(F)F)c3ncccc3c1)C(F)(F)F)nc2-c1ccc(F)cc1 [Example 278]
16 | < 0.2 µM | COc1cc(C(=O)NC[C@](O)(c2cc3c(c(-c4ccc(F)cc4)n2)OCC3(F)C(N)=O)C(F)(F)F)cn2cc(C3CC3)nc12 (some centres unmarked) [Example 672]
17 | < 0.2 µM | COc1cc(C(=O)NC[C@](O)(c2cc3c(c(-c4ccc(F)cc4)n2)OC[C@]3(C)C(N)=O)C(F)(F)F)ccc1-c1ncc(C)o1 [Example 182]
18 | > 0.2 µM | Cc1noc(C)c1-c1ccc(C(=O)NC[C@](O)(c2cc3c(c(-c4ccc(F)cc4)n2)OC[C@]3(C)C(N)=O)C(F)(F)F)cc1OC1CC1 [Example 172]
19 | < 0.2 µM | COc1cc(C(=O)NC[C@](O)(c2cc3c(c(-c4ccc(F)cc4)n2)OC[C@]3(C)C(N)=O)C(F)(F)F)cc2cn(C)nc12 [Example 427]
20 | < 0.2 µM | COc1cc(C(=O)NC[C@](O)(c2cc3c(c(-c4ccc(F)cc4)n2)OC[C@]3(C)C(N)=O)C(F)(F)F)ccc1O [Example 310]
21 | < 0.2 µM | Cc1cnc2c(NC(=O)c3ncc(C)o3)cc(C(=O)NC[C@](O)(c3cc4c(c(-c5ccc(F)cc5)n3)OC[C@]4(C)C(N)=O)C(F)(F)F)cc2c1 [Example 630]

Further lines, the compound ahead of its results:

Row | SMILES | EC50
22 | COc1cc(C(=O)NCC(O)(c2cc3c(c(-c4ccc(F)cc4)n2)OC[C@]3(C)C(=O)NS(=O)(=O)C2CC2)C(F)(F)F)ccc1OCCO (some centres unmarked) [Example 12] | > 0.2 µM
23 | C[C@]1(C(=O)N2CC[C@H](O)C2)COc2c1cc([C@@](O)(CNC(=O)c1cc(OC3CC3)c3ncccc3c1)C(F)(F)F)nc2-c1ccc(F)cc1 [Example 469] | > 0.2 µM
24 | C[C@]1(C(N)=O)COc2c1cc([C@@](O)(CNC(=O)c1ccc(-c3cccnc3)c(OC3CC3)c1)C(F)(F)F)nc2-c1ccc(F)cc1 [Example 141] | < 0.2 µM
25 | C[C@]1(C(N)=O)COc2c1cc([C@@](O)(CNC(=O)c1ccc(-c3ccncc3)c(OC3CC3)c1)C(F)(F)F)nc2-c1ccc(F)cc1 [Example 150] | < 0.2 µM
26 | Cc1cnc2c(S(C)(=O)=O)cc(C(=O)NC[C@](O)(c3cc4c(c(-c5ccc(F)cc5)n3)OC[C@]4(C)C(N)=O)C(F)(F)F)cc2c1 [Example 648] | < 0.2 µM
27 | C[C@]1(C(N)=O)COc2c1cc([C@@](O)(CNC(=O)c1ccc(OC(F)F)c(OC(F)F)c1)C(F)(F)F)nc2-c1ccc(F)cc1 [Example 70] | < 0.2 µM
28 | COc1cc(C(=O)NC[C@](O)(c2cc3c(c(-c4ccc(F)cc4)n2)OC[C@]3(C)C(=O)NC2CCCC2)C(F)(F)F)cc2cccnc12 [Example 47] | > 0.2 µM
29 | CCc1ccc2cc(C(=O)NC[C@](O)(c3cc4c(c(-c5ccc(F)cc5)n3)OC[C@]4(C)C(N)=O)C(F)(F)F)cc(O)c2n1 [Example 272] | > 0.2 µM
30 | C[C@]1(C(N)=O)COc2c1cc([C@@](O)(CNC(=O)c1ccc(N3CCOCC3)c(OC3CC3)c1)C(F)(F)F)nc2-c1ccc(F)cc1 [Example 160] | > 0.2 µM
31 | C[C@]1(C(N)=O)COc2c1cc([C@@](O)(CNC(=O)c1ccc(-c3cncc(C(F)(F)F)c3)c(OC3CC3)c1)C(F)(F)F)nc2-c1ccc(F)cc1 [Example 143] | > 0.2 µM
32 | C[C@]1(C(N)=O)COc2c1cc([C@@](O)(CNC(=O)c1cc3c(F)cccc3[nH]1)C(F)(F)F)nc2-c1ccc(F)cc1 [Example 601] | > 0.2 µM
33 | Cc1cnc2c(O)cc(C(=O)NC[C@](O)(c3cc4c(c(-c5ccc(F)c(Cl)c5)n3)OC[C@]4(C)C(N)=O)C(F)(F)F)cc2c1 [Example 253] | < 0.2 µM
34 | C[C@]1(C(N)=O)COc2c1cc([C@@](O)(CNC(=O)c1cc(C(N)=O)ccn1)C(F)(F)F)nc2-c1ccc(F)cc1 [Example 295] | > 0.2 µM
35 | C[C@]1(C(N)=O)COc2c1cc([C@@](O)(CNC(=O)c1ccc3cn[nH]c3c1)C(F)(F)F)nc2-c1ccc(F)cc1 [Example 587] | > 0.2 µM
36 | Cc1ccncc1-c1ccc(C(=O)NC[C@](O)(c2cc3c(c(-c4ccc(F)cc4)n2)OC[C@]3(C)C(N)=O)C(F)(F)F)cc1OC1CC1 [Example 148] | > 0.2 µM
37 | CN(C)c1nc2ccc(C(=O)NC[C@](O)(c3cc4c(c(-c5ccc(F)cc5)n3)OC[C@]4(C)C(N)=O)C(F)(F)F)cc2s1 [Example 438] | < 0.2 µM
38 | C[C@]1(C(N)=O)COc2c1cc([C@@](O)(CNC(=O)c1ccc3nc(N)sc3c1)C1CC1)nc2-c1ccc(F)cc1 [Example 441] | < 0.2 µM

— patent US11505558B1, “Antiviral heterocyclic compounds” (Enanta Pharmaceuticals, Inc., priority 2019, dated 2022)
